ChEMBL document CHEMBL1201862, “PubChem BioAssay data set” (2004)
The source made the active and inactive calls.

Legend:
[1] = biological target: ATP-dependent molecular chaperone HSP82 (Candida albicans (strain WO-1) (Yeast), UniProt C4YTQ8); assay: steroid-induced GRE reporter decrease in yeast – S. cerevisiae, luminescence, Hsp90 inhibitor project, dose response (AID 2400); assay type: functional, cell-based;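 note: beta-galactosidase luminescence from glucocorticoid response element reporter as proxy for Hsp90 function; inhibitor potency where signal loss means Hsp90 inhibition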
ATP-dependent molecular chaperone HSP82, sequence (C4YTQ8 whole entry): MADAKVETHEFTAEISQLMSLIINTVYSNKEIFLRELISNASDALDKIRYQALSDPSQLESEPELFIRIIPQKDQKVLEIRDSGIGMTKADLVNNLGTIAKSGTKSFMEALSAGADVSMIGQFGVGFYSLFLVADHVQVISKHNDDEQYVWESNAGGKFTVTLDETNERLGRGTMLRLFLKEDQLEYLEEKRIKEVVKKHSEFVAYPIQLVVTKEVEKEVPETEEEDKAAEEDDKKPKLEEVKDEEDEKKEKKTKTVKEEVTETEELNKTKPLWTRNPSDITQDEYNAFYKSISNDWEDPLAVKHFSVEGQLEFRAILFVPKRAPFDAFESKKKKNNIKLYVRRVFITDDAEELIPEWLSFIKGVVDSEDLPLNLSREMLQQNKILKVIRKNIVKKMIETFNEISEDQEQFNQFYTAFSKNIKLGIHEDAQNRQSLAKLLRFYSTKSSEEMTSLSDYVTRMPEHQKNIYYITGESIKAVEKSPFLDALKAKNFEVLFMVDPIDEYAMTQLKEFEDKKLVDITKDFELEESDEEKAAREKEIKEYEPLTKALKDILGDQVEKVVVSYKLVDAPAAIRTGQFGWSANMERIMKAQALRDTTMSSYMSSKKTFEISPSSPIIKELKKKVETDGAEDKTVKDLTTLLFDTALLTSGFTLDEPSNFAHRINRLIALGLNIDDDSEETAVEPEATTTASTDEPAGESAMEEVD

[2] = NIH-3T3 fibroblast cytotoxicity, dose response, cytotoxicity control, cell-based, fluorescence, Alamar Blue, secondary assay (AID 2327); assay type: functional;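 note: NIH-3T3 mouse fibroblasts cultured with fluconazole at 8 µg/mL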
[3] = fluconazole-exposed Candida albicans growth modulators – fluorescence, retest, confirmation (AID 2467); assay type: functional, cell-based
[4] = biological target: T1, Serine/threonine-protein phosphatase (Candida dubliniensis (strain CD36 / CBS 7987 / NCPF 3949 / NRRLY-17841) (Yeast), UniProt B9W6M3); assay: blockers of CaCl2-induced CDRE-lacZ signaling – S. cerevisiae, luminescence, secondary, dose response (AID 2388); assay type: functional, cell-based;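 note: yeast reporter cells carrying a calcineurin-responsive lacZ construct stimulated with calcium chloride; luminescent beta-galactosidase reporter signal in whole cells rather than isolated phosphatase activity; potency for inhibition where a drop in reporter signal means calcineurin blockade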
T1 sequence (B9W6M3 whole entry): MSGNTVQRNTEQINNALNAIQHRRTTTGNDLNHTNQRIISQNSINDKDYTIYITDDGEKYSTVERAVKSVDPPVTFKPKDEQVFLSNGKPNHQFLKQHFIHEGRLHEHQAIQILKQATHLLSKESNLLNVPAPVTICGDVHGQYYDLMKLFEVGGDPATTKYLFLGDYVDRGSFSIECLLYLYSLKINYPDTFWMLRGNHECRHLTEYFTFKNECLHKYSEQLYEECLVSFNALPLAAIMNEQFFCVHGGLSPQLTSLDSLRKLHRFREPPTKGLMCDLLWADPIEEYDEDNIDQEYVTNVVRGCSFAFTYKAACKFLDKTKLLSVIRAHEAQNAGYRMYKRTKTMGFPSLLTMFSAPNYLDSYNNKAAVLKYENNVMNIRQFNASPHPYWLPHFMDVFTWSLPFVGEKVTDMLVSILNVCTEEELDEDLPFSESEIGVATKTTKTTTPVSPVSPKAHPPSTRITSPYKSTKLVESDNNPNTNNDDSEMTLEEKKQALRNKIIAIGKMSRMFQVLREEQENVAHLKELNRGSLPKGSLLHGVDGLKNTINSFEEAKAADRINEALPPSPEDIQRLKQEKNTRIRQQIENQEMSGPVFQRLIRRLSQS

Beta-galactosidase = Beta-galactosidase (Escherichia coli, UniProt Q8VNN2); assay: PubChem AID 485352; assay type: functional
Beta-galactosidase, sequence (Q8VNN2 whole entry): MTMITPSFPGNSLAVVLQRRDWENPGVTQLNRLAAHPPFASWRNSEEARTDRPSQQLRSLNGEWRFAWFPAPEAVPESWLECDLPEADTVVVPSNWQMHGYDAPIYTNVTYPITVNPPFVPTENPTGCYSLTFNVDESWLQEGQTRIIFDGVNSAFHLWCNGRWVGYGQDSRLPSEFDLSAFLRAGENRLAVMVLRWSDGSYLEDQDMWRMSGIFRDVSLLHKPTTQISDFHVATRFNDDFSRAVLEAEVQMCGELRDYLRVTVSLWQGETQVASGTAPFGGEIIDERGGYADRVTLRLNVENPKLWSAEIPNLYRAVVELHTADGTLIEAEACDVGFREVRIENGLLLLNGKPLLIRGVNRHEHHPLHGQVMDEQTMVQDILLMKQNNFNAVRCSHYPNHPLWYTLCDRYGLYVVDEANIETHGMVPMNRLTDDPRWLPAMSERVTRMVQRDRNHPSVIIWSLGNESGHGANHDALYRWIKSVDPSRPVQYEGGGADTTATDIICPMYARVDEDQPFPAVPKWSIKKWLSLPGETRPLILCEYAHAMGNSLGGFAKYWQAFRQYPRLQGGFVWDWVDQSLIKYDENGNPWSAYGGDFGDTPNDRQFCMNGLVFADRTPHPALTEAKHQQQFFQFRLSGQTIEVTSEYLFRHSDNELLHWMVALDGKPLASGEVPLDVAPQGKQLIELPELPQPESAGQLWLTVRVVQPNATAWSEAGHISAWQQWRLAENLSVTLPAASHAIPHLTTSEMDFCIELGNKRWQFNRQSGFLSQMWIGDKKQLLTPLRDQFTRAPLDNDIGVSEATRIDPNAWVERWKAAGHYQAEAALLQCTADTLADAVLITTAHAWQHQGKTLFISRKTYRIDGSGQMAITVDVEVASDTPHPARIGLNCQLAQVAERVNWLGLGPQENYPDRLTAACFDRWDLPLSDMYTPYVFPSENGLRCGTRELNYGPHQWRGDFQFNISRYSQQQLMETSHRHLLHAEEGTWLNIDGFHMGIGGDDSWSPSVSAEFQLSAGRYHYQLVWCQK

[5] = biological target: T2, Type-1 angiotensin II receptor (Homo sapiens, UniProt P30556); assay: antagonism of angiotensin II type 1 receptor – cell-based, uHTS hits, selectivity assay for APJ receptor antagonist project, dose response (AID 463214); assay type: functional;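 note: antagonist potency against angiotensin II stimulated AT1 response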
T2 sequence (P30556 whole entry): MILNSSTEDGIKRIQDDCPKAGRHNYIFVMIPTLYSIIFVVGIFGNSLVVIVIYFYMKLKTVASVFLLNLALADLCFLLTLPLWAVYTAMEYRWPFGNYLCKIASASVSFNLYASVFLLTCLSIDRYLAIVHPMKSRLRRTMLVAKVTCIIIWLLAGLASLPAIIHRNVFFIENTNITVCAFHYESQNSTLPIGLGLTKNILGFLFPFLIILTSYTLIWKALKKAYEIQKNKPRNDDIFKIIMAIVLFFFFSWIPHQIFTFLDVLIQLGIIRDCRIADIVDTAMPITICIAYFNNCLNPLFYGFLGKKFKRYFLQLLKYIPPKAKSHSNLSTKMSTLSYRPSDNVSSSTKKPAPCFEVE

[6] = viability of uninfected HEp-2 cells – cell-based, HTS, cytotoxicity control for RSV inhibitor project, dose response (AID 2410); assay type: functional; settings: human respiratory syncytial virus
Vero = assay: viability of Vero cells under compound – cytotoxicity control for flavivirus capping enzyme inhibitors (AID 588742); assay type: functional; settings: Chlorocebus sabaeus
HEK293 = assay: cells; assay type: functional, cell-based; settings: Homo sapiens
[7] = biological target: T3, Nuclear receptor subfamily 0 group B member 1 (Homo sapiens, UniProt P51843); assay: Luminescence-based cell-based high throughput dose response assay for inhibitors of the orphan nuclear receptor subfamily 0, group B, member 1 (DAX1; NR0B1). [Related pubchem assays (depositor defined):AID504766, AID504790]; assay type: functional
T3 sequence (P51843 whole entry): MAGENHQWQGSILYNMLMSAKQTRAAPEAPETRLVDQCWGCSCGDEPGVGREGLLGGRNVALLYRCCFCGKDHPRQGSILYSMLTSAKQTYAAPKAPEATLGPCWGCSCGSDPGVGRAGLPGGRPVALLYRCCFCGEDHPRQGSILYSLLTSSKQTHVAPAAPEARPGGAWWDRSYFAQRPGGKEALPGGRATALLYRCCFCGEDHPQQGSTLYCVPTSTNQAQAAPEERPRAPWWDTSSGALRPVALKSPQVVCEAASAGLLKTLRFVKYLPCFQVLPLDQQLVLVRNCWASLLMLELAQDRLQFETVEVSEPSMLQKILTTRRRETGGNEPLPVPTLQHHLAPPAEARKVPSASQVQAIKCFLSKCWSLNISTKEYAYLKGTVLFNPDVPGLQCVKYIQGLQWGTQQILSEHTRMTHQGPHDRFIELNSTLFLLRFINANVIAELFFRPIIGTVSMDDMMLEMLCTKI

[8] = biological target: Voltage-gated inwardly rectifying potassium channel KCNH2 (Homo sapiens, UniProt Q12809); settings: Potency;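 note: confirmatory quantitative high-throughput screen measuring inhibition of hERG channel activity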
Voltage-gated inwardly rectifying potassium channel KCNH2, sequence (Q12809 whole entry): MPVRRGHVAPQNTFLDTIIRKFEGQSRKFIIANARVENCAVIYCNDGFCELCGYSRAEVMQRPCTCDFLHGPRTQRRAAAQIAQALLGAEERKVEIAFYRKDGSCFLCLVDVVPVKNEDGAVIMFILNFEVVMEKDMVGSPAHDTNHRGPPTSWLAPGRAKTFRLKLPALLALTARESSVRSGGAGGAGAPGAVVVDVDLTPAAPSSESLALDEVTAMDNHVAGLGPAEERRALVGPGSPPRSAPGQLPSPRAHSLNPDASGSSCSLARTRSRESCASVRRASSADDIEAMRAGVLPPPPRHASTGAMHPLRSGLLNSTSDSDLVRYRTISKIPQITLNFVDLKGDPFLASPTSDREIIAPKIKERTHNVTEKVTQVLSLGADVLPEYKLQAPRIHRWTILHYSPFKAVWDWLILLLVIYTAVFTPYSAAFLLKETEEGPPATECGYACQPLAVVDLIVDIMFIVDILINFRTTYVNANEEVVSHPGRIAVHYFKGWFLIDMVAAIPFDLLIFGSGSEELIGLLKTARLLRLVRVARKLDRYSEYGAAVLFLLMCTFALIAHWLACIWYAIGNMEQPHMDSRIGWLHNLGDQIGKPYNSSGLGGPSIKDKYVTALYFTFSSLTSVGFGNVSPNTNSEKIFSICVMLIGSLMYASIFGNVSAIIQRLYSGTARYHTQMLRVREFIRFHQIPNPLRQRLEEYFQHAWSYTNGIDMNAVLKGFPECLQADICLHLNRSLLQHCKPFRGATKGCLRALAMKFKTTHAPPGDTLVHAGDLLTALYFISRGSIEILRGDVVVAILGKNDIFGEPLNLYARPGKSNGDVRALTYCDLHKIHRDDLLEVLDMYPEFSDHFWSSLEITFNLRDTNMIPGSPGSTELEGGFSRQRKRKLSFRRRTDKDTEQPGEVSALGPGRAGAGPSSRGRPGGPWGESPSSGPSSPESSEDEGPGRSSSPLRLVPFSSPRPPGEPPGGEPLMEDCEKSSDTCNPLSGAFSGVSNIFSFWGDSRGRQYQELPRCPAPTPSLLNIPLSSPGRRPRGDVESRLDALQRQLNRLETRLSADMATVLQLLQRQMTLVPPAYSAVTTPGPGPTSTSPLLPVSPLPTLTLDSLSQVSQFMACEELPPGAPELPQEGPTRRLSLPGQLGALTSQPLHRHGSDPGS

[9] = biological target: T4, Sentrin-specific protease 7 (Homo sapiens, UniProt Q9BQF6); assay type: functional;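 note: Luminescence-based dose-response confirmation of ultra-high-throughput screening hits, measuring inhibition of SENP7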
T4 sequence (Q9BQF6 whole entry): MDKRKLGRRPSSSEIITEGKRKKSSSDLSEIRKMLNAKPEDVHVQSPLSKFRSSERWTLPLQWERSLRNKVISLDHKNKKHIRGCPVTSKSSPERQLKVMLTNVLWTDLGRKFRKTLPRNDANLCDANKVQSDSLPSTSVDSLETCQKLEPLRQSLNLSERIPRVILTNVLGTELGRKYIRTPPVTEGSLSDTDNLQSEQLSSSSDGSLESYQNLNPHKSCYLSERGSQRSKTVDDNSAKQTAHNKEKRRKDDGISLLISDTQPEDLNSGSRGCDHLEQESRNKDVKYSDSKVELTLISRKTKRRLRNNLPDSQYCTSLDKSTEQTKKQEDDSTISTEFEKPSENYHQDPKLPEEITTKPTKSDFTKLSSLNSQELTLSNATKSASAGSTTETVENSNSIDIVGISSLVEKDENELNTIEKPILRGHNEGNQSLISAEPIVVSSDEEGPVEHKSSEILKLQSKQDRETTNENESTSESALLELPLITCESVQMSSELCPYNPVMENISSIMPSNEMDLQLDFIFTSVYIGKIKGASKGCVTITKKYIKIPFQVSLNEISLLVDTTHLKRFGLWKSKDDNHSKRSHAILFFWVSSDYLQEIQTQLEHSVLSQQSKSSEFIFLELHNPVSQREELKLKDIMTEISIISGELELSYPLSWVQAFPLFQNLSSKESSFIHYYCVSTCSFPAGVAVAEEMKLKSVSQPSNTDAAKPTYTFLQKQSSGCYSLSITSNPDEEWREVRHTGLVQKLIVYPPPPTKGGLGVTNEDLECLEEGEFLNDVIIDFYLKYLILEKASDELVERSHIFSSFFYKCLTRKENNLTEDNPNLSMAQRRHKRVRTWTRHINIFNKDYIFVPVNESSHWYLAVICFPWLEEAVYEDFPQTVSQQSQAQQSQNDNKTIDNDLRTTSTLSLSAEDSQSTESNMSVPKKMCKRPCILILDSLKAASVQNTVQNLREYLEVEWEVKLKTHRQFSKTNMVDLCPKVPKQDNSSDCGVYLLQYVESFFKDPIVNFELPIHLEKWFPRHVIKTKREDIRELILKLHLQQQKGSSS

[10] = biological target: T5, Sentrin-specific protease 6 (Homo sapiens, UniProt Q9GZR1); assay type: functional;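 note: Luminescence-based dose-response confirmatory assay of SENP6 inhibition, following up an ultra-high-throughput screen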
T5 sequence (Q9GZR1 whole entry): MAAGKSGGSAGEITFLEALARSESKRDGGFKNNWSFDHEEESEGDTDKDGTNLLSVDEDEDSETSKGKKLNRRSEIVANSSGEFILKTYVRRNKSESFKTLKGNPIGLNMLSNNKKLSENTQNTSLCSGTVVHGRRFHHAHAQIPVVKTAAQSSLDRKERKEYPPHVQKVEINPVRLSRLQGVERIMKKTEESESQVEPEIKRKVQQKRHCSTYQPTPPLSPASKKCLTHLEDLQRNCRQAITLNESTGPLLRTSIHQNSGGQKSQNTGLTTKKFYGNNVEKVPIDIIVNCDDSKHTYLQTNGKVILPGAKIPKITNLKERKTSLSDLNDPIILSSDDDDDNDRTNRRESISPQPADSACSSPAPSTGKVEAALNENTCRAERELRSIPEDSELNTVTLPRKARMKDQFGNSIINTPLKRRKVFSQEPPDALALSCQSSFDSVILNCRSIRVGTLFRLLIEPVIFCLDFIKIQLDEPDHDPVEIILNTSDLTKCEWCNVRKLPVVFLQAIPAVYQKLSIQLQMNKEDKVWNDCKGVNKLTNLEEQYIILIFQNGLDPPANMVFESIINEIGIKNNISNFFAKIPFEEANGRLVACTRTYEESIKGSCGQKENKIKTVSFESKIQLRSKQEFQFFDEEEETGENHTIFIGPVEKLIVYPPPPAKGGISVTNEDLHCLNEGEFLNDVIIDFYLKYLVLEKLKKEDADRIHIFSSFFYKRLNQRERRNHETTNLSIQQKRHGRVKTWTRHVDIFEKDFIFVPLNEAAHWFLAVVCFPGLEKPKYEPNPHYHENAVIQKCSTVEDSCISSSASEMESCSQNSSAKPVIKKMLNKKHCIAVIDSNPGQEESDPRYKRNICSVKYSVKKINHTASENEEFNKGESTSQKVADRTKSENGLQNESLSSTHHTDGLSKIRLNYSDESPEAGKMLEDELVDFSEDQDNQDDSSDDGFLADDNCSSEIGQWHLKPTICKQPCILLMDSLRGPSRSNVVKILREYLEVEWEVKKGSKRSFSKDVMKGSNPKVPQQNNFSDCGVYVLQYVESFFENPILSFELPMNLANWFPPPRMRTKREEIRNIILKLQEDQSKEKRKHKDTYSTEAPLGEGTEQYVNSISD

Caspase-3 = biological target: T6, Caspase-3 (Homo sapiens, UniProt P42574); assay type: functional;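 note: Dose-response selectivity test against caspase-3 for candidate inhibitors of sentrin-specific proteases (SENPs)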
T6 sequence (P42574 whole entry): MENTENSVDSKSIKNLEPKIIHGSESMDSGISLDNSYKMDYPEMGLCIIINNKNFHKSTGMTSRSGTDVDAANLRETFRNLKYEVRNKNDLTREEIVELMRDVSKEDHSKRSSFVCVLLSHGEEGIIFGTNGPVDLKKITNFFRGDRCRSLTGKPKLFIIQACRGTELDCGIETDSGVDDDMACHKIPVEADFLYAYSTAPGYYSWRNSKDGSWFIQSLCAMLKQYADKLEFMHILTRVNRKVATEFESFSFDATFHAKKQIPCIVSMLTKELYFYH

[11] = biological target: T7, Sentrin-specific protease 8 (Homo sapiens, UniProt Q96LD8); assay type: functional;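 note: luminescence read-out of SENP8 inhibition, dose-response confirmation following an ultra-high-throughput screen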
T7 sequence (Q96LD8 whole entry): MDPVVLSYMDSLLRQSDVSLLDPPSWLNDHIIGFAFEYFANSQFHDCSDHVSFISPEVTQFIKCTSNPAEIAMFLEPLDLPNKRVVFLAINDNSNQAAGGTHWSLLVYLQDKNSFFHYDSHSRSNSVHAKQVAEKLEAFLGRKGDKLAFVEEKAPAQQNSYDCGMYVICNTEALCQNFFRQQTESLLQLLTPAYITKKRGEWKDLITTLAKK

HeLa = assay: ATP-based viability loss in HeLa cells – cell-based, CellTiter-Glo luminescence, cherry-pick samples, cytotoxicity control for MITF activator project, dose response (AID 540259); assay type: functional; settings: Homo sapiens

With `Cc1nn(-c2ccccc2)c(C)c1C(=O)OC/C(O)=C(\C#N)c1nc2ccccc2[nH]1` as the compound, how does the EC50 [1] read?
The EC50 was > 150 µM (inactive).

What about the EC50 [2] of the same compound?
Its EC50 is > 150 µM (inconclusive).

What about the EC50 [3] of the same compound?
The EC50 was 0.764 µM (active).

And the EC50 [4]?
The EC50 was > 180 µM (inactive).

With `O=C(CNc1ccccc1C(=O)O)c1ccccc1` as the compound, how does the EC50 (Beta-galactosidase) read?
The EC50 was > 40 µM (inactive).

What about the IC50 [5] of the same compound?
The IC50 was 7.51 µM (active).

For `COc1ccccc1N1CCN(C(S)=Nc2ccc3nc(N4CCOCC4)cc(C)c3c2)CC1`, which CC50 [6] is on record?
Its CC50 is 39.1 µM (active).

And the CC50 (Vero)?
Its CC50 is > 40 µM (active).

Which IC50 (HEK293) does the source give for `C/C(=N\NC(=O)c1nn(C)cc1Br)c1ccncc1` here?
The IC50 was > 67.6 µM (inactive).

What about the IC50 [7] of the same compound?
The IC50 was > 67.6 µM (inactive).

Which results are given for `Cc1ccc2c(c1N)C(=O)c1ccccc1C2=O`?
AC50 [8]: 35.5 µM (inconclusive); IC50 [9]: 4.33 µM (active); IC50 [10]: 42.3 µM (active); IC50 (Caspase-3): 11.8 µM (active); IC50 [11]: > 100 µM (inactive); AC50 (HeLa): 36 µM (active)

Which results are given for `CCOC(=O)c1nn(-c2ccc(Cl)cc2)cc1O`?
IC50 (HEK293): > 67.5 µM (inactive); IC50 [7]: > 67.5 µM (inactive)

Which IC50 (HEK293) does the source give for `CCOc1ccc(-n2c(=O)[nH]c3sc4c(c3c2=O)CCCC4)cc1` here?
The IC50 was > 67.6 µM (inactive).

What about the IC50 [7] of the same compound?
The IC50 was > 67.6 µM (inactive).

For `O=C(CN1C(=O)C2C3C=CC(C3)C2C1=O)OCC(=O)c1ccc(Cl)c([N+](=O)[O-])c1` (stereo unspecified), which EC50 (Beta-galactosidase) is on record?
The EC50 was > 40 µM (inactive).

What about the IC50 [5] of the same compound?
The IC50 was 14.3 µM (active).

For `COc1ccc(-n2nc(C(=O)NCC(=O)NCCC3=CCCCC3)c3ccccc3c2=O)c(OC)c1`, which EC50 [1] is on record?
The EC50 was > 150 µM (inactive).

What about the EC50 [2] of the same compound?
Its EC50 is > 150 µM (inactive).

And the EC50 [3]?
Its EC50 is 0.469 µM (active).

And the EC50 [4]?
The EC50 was > 180 µM (inactive).
